In US7074789B2, “Kinase inhibitors” (Amgen Inc., priority 1999, dated 2006):

Key:
Type in all cases: biochemical
Lck = target: T1, Lck (Homo sapiens, UniProt P06239); assay: Kinase inhibition assay (33P transfer), Lck; conditions: read-out: Lck-1
T1 construct: Kinases are expressed as either kinase domains or full length constructs; made in house
Procedure, shortened: (§1)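 Kinase domain or full-length constructs, GST- or polyHis-tagged, expressed in E. coli or baculovirus-High Five cells, sometimes with regulatory polypeptides. Activity measured as 33PO4 transfer from ATP to plate-bound poly(Glu,Tyr) 4:1 or poly(Arg,Ser) 3:1; after incubation, plates washed with 0.5% phosphoric acid and counted by liquid scintillation.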

Zap-70 = target: T2, Zap-70 (Homo sapiens, UniProt P43403); assay: Kinase inhibition assay (33P transfer), Zap-70; conditions: read-out: Zap-1
T2 construct: Kinases are expressed as either kinase domains or full length constructs; made in house
T2 sequence (P43403 1-619): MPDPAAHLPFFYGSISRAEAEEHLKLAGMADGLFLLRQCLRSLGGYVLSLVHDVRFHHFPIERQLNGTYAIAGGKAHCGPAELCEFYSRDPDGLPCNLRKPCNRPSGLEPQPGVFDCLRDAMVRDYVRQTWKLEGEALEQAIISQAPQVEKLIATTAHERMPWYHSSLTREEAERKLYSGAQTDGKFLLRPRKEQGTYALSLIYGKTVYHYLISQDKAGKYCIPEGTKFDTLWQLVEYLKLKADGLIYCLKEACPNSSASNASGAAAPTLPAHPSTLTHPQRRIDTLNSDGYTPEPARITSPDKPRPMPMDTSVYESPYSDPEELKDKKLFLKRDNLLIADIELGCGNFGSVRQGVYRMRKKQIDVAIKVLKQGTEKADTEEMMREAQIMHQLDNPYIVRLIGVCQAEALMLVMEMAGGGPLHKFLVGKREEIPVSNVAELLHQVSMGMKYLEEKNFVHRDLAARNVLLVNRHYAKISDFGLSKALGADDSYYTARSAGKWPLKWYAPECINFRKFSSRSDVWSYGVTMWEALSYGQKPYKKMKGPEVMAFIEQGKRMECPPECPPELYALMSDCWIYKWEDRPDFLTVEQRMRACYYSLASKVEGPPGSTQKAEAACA
Procedure, shortened: as §1

Itk = target: T3, Itk (Homo sapiens, UniProt Q08881); assay: Kinase inhibition assay (33P transfer), Itk; conditions: read-out: Itk-1
T3 construct: Kinases are expressed as either kinase domains or full length constructs; made in house
T3 sequence (Q08881 1-620): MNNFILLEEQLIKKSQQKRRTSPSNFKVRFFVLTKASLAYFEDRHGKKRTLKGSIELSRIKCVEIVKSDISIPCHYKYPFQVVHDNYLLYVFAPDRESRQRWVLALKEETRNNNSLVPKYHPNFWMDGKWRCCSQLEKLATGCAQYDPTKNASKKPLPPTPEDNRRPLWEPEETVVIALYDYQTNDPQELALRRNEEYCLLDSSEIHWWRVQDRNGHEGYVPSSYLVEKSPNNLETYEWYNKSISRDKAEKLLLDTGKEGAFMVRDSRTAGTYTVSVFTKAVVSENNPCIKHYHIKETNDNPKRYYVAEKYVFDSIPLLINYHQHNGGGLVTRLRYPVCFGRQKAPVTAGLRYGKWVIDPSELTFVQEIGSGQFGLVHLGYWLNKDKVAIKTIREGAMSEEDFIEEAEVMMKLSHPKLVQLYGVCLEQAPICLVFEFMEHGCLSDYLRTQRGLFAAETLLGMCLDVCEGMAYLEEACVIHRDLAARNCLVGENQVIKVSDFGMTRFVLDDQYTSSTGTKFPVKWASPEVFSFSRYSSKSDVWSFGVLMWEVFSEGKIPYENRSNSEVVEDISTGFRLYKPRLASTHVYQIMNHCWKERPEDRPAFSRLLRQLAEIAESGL
Procedure, shortened: (§2)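 Activity read as 33P incorporation from ATP into poly(Glu,Tyr) 4:1 or poly(Arg,Ser) 3:1 substrate bound to microtiter plates, measured by scintillation after acid washing. Enzymes were affinity-purified GST or polyHis fusions (kinase domain or full length) from E. coli or baculovirus; IC50 = 50% reduction in labelled phosphate.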

EGFR = target: T4, EGFR (Homo sapiens, UniProt P00533); assay: Kinase inhibition assay (33P transfer), EGFR; conditions: Table 2, kinase inhibition class; read-out: EGFR-1
T4 construct: Kinases are expressed as either kinase domains or full length constructs; made in house
T4 sequence (P00533 25-1210, species assumed): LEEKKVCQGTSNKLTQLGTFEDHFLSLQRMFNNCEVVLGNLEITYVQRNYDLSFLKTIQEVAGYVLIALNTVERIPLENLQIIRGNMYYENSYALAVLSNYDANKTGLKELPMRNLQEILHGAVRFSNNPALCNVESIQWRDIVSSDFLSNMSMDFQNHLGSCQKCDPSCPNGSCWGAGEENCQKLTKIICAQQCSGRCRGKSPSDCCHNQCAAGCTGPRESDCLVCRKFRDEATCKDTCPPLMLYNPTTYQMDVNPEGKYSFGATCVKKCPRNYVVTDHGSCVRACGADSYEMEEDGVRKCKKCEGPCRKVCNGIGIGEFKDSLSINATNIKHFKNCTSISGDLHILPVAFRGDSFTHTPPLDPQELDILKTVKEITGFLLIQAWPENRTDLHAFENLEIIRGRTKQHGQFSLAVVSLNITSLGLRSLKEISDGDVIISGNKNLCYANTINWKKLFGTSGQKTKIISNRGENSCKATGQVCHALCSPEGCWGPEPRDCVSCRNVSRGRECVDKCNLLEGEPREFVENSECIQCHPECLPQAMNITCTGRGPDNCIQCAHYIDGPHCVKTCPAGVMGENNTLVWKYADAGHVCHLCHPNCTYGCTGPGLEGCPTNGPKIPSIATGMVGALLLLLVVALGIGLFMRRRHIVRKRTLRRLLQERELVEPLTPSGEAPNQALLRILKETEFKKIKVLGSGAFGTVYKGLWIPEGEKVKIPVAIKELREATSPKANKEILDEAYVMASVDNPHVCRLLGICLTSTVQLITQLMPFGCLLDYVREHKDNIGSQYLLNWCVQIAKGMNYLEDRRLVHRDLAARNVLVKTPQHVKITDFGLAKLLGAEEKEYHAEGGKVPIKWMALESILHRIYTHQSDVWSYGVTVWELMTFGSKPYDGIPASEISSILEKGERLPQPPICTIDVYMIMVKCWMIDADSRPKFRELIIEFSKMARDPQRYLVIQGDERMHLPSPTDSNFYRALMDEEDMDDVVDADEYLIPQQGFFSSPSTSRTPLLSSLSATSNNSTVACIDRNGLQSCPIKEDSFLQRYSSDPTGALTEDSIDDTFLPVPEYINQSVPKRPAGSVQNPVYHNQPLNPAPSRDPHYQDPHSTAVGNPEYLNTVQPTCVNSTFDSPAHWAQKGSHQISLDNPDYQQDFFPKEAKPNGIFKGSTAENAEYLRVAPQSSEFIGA
Procedure, shortened: as §2

ErbB2 = target: T5, ErbB2 (Homo sapiens, UniProt P04626); assay: Kinase inhibition assay (33P transfer), ErbB2; conditions: read-out: ErbB2-2
T5 construct: Kinases are expressed as either kinase domains or full length constructs; made in house
Procedure, shortened: as §2

Kdr = target: T6, Kdr (Homo sapiens, UniProt P35968); assay: Kinase inhibition assay (33P transfer), Kdr; conditions: read-out: KDR-1
T6 construct: Kinases are expressed as either kinase domains or full length constructs; made in house
Procedure, shortened: as §1

c-Met = target: T7, c-Met (Homo sapiens, UniProt P08581); assay: Kinase inhibition assay (33P transfer), c-Met; conditions: Table 2, kinase inhibition class; read-out: Met-1
T7 construct: Kinases are expressed as either kinase domains or full length constructs; made in house
T7 sequence (P08581 25-1390): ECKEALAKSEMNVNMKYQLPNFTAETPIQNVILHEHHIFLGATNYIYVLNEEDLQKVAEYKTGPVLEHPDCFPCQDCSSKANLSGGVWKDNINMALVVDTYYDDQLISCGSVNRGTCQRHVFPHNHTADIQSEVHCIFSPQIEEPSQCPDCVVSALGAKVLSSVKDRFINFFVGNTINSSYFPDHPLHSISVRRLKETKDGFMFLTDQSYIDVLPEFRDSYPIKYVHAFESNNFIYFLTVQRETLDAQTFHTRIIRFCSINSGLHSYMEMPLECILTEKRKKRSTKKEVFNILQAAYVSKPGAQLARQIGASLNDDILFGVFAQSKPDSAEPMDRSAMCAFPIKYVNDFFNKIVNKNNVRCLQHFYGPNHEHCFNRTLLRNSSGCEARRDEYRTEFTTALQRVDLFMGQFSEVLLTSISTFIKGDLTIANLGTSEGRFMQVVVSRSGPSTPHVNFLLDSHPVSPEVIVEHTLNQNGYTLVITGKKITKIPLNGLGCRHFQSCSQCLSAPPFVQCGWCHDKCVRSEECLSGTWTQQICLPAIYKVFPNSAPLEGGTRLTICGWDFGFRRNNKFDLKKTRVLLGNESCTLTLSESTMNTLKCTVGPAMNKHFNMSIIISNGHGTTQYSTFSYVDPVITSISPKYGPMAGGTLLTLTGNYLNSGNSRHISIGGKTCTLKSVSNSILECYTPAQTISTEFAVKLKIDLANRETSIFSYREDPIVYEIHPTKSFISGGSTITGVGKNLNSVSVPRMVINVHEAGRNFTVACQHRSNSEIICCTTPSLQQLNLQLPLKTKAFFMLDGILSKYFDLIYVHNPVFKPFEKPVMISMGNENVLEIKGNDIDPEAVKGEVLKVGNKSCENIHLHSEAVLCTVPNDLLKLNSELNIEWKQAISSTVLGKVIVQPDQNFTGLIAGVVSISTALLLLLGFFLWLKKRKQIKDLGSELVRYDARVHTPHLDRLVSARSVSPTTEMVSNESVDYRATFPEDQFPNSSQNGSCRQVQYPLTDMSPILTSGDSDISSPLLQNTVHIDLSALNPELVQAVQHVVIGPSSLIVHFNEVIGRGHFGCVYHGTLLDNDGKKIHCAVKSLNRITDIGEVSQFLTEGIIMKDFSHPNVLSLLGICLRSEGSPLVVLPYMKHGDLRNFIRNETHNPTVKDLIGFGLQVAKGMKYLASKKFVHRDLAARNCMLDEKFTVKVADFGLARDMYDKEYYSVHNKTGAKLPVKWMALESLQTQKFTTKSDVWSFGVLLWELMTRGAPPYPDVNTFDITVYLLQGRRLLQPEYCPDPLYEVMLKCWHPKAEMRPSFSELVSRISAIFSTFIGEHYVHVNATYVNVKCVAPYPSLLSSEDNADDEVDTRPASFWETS
Procedure, shortened: as §2

AKT = target: T8, AKT (Homo sapiens, UniProt Q9Y243); assay: Kinase inhibition assay (33P transfer), AKT; conditions: Table 2, kinase inhibition class; read-out: AKT3-1
T8 construct: Kinases are expressed as either kinase domains or full length constructs; made in house
T8 sequence (Q9Y243 whole entry, the tested form may be a part): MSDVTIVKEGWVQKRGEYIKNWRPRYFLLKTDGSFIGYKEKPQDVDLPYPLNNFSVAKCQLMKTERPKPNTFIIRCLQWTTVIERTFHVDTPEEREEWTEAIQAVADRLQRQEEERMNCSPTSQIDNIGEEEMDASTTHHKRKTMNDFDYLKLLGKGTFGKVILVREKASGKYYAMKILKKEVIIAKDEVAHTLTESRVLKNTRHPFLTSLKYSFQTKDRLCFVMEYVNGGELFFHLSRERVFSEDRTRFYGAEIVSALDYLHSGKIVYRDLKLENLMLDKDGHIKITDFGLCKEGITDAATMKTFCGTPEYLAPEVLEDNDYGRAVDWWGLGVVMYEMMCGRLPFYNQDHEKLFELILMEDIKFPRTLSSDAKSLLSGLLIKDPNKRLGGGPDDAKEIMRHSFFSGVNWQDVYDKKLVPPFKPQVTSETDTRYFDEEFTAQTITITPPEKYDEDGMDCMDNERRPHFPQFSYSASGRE
Procedure, shortened: as §1

IGFR-1 = target: T9, IGFR-1 (Homo sapiens, UniProt P08069); assay: Kinase inhibition assay, IGFR-1 (Table 2); conditions: Table 2, kinase inhibition class
T9 construct: Kinases are expressed as either kinase domains or full length constructs; made in house

PDGFRB = target: T10, PDGFRB (Homo sapiens, UniProt P09619); assay: Kinase inhibition assay (33P transfer), PDGFRB; conditions: read-out: PDGFRB-1
T10 construct: Kinases are expressed as either kinase domains or full length constructs; made in house
T10 sequence (P09619 33-1106, species assumed): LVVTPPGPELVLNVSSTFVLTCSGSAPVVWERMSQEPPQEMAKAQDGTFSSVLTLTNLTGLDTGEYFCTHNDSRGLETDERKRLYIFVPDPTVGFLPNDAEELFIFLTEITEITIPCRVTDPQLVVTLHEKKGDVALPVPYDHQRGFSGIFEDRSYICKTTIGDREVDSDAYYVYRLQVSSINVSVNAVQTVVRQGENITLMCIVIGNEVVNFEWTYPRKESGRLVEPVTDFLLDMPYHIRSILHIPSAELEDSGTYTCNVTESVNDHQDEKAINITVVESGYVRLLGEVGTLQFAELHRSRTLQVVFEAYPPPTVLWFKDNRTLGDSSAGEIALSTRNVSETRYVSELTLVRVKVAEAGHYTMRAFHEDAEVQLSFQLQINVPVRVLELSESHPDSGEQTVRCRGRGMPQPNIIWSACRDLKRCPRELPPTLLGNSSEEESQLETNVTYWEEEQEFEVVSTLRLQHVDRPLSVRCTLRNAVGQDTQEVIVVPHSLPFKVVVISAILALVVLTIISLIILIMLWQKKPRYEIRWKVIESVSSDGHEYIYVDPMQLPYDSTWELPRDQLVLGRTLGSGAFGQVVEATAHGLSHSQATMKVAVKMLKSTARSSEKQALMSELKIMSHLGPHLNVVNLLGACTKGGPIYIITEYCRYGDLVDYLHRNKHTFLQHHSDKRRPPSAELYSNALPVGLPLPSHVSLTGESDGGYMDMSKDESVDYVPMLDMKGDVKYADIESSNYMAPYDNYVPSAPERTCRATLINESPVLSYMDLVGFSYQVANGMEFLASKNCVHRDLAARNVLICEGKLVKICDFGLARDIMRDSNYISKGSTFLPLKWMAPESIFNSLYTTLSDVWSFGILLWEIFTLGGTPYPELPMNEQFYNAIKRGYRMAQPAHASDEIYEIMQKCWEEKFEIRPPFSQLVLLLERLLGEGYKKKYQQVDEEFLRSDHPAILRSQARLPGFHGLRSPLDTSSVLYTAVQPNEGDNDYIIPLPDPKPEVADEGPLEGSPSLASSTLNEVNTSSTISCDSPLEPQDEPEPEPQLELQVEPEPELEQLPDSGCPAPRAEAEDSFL

T1 sequence (P06239 whole entry, species assumed, the tested form may be a part): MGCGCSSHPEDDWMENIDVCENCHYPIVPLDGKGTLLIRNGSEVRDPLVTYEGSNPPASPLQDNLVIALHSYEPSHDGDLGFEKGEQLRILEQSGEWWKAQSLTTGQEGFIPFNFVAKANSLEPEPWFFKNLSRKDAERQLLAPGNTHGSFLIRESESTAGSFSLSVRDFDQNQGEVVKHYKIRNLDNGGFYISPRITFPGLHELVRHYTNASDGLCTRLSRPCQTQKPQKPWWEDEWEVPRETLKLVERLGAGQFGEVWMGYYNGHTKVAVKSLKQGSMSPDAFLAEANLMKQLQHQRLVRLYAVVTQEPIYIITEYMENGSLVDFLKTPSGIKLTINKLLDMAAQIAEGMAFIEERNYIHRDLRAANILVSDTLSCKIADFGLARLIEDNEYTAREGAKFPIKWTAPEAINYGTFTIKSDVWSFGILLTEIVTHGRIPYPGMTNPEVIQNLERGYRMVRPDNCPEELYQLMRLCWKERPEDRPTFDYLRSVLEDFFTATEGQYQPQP

| IC50 (Lck) | IC50 (Zap-70) | IC50 (Itk) | IC50 (EGFR) | IC50 (ErbB2) | IC50 (Kdr) | IC50 (c-Met) | IC50 (AKT) | IC50 (IGFR-1) | IC50 (PDGFRB) | SMILES |
| --- | --- | --- | --- | --- | --- | --- | --- | --- | --- | --- |
| > 8.53 µM | > 8.53 µM | > 8.53 µM | > 8.53 µM | > 8.53 µM | < 0.758 µM | > 8.53 µM | > 8.53 µM | > 8.53 µM | > 8.53 µM | COc1ccc([C@H](C)Nc2nc3ccccc3n2-c2ncnc(Nc3cc(OC)c(OC)c(OC)c3)n2)cc1 [Compound 1046] |
| > 9.67 µM | > 9.67 µM | > 9.67 µM | > 9.67 µM | > 9.67 µM | > 9.67 µM | > 9.67 µM | > 9.67 µM | > 9.67 µM | > 9.67 µM | COc1cc(Nc2ncnc(Nc3cccc(CN4CCN(C)CC4)c3)n2)cc(OC)c1OC [Compound 1047] |
| 0.804 to 4.82 µM | > 9.04 µM | > 9.04 µM | < 0.804 µM | 0.804 to 4.82 µM | < 0.804 µM | > 9.04 µM | > 9.04 µM | > 9.04 µM | 7.03 to 9.04 µM | CCc1ccc(Nc2nc3ccccc3n2-c2ncnc(Nc3cc(OC)c(OC)c(OC)c3)n2)cc1 [Compound 1048] |
| 0.782 to 4.69 µM | > 8.8 µM | > 8.8 µM | > 8.8 µM | > 8.8 µM | < 0.782 µM | 0.782 to 4.69 µM | > 8.8 µM | > 8.8 µM | 0.782 to 4.69 µM | COc1cc(Nc2ncnc(-n3c(Nc4ccccc4C(C)C)nc4ccccc43)n2)cc(OC)c1OC [Compound 1049] |
| > 8.13 µM | > 8.13 µM | > 8.13 µM | 4.34 to 6.32 µM | 4.34 to 6.32 µM | 0.723 to 4.34 µM | 4.34 to 6.32 µM | > 8.13 µM | > 8.13 µM | 0.723 to 4.34 µM | COc1cc(Nc2ncnc(-n3c(Nc4ccc(OC(F)(F)F)cc4)nc4ccccc43)n2)cc(OC)c1OC [Compound 1050] |
| < 0.78 µM | > 8.78 µM | 4.68 to 6.83 µM | > 8.78 µM | 0.78 to 4.68 µM | < 0.78 µM | > 8.78 µM | > 8.78 µM | 4.68 to 6.83 µM | 0.78 to 4.68 µM | COc1cc(Nc2ncnc(-n3c(Nc4ccc(N(C)C)cc4)nc4ccccc43)n2)cc(OC)c1OC [Compound 1051] |
| > 7.78 µM | > 7.78 µM | > 7.78 µM | > 7.78 µM | 4.15 to 6.05 µM | 0.692 to 4.15 µM | > 7.78 µM | > 7.78 µM | > 7.78 µM | 4.15 to 6.05 µM | COc1cc(Br)ccc1Nc1nc2ccccc2n1-c1ncnc(Nc2cc(OC)c(OC)c(OC)c2)n1 [Compound 1052] |
| 0.821 to 4.92 µM | > 9.23 µM | > 9.23 µM | 4.92 to 7.18 µM | > 9.23 µM | < 0.821 µM | > 9.23 µM | > 9.23 µM | > 9.23 µM | < 0.821 µM | COc1cc(Nc2ncnc(-n3c(Nc4cccc(F)c4)nc4ccccc43)n2)cc(OC)c1OC [Compound 1053] |
| < 0.845 µM | > 9.5 µM | > 9.5 µM | > 9.5 µM | > 9.5 µM | < 0.845 µM | 7.39 to 9.5 µM | > 9.5 µM | 7.39 to 9.5 µM | < 0.845 µM | COc1cc(Nc2ncnc(-c3cccnc3Nc3cccc(C(N)=O)c3)n2)cc(OC)c1OC [Compound 1090] |
| 1.13 to 6.77 µM | > 12.7 µM | 9.88 to 12.7 µM | > 12.7 µM | 1.13 to 6.77 µM | < 1.13 µM | 9.88 to 12.7 µM | 6.77 to 9.88 µM | > 12.7 µM | < 1.13 µM | COc1cc(Nc2ncnc(-c3cccnc3N)n2)cc(OC)c1OC [Compound 1091] |
